Reference: article PMC10424242, “Macrocyclic Peptidomimetic Plasmepsin X Inhibitors with Potent In Vitro and In Vivo Antimalarial Activity” (Journal of Medicinal Chemistry, 2023)
Like-named read-outs stand apart in the source and are kept apart here.

Key:
[1] = target: recombinant P. falciparum PMX (Plasmodium falciparum, UniProt Q8IAS0); assay: Recombinant P. falciparum PMX inhibition assay (fluorogenic substrate Rh2N); type: biochemical
Method: The fluorescence of this peptide is quenched by the spatial proximity of the DABCYL/EDANS groups in the uncleaved peptide and is increased upon cleavage at the internal F–I bond. […] Control wells contained no inhibitor, and the plate was blanked against the substrate only in DB. […] All experiments were performed in duplicate.

PMIV = PMIV (Plasmodium falciparum, UniProt Q8IM16); assay: FRET-based PMIV inhibition assay; type: biochemical, P. falciparum
Sequence of PMIV (Q8IM16 122-449): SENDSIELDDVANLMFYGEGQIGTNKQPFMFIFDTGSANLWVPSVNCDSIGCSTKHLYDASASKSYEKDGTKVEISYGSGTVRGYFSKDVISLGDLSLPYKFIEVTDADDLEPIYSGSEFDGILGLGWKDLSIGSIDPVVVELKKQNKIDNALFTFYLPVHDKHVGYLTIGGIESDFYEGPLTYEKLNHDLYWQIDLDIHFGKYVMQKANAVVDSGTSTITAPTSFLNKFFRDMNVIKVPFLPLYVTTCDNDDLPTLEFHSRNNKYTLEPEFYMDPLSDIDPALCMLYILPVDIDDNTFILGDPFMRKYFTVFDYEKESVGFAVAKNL
Method: (§1) A fluorescence resonance energy transfer (FRET)-based assay was performed to assess the ability of the compounds to inhibit PMIV, CatD, and BACE1. Serial dilutions of test compounds were dispensed in a white 96-well plate. […] The mixture was incubated for 20 min at 37 °C. […] IC50 values were calculated with GraphPad Prism 8.0 using the nonlinear regression, variable slope (four parameters). Compounds were tested in triplicate.

cathepsin D (CatD) = cathepsin D (CatD) (Homo sapiens, UniProt P07339); assay: FRET-based CatD inhibition assay (selectivity counter screen); type: biochemical
Sequence of cathepsin D (CatD) (P07339 65-412): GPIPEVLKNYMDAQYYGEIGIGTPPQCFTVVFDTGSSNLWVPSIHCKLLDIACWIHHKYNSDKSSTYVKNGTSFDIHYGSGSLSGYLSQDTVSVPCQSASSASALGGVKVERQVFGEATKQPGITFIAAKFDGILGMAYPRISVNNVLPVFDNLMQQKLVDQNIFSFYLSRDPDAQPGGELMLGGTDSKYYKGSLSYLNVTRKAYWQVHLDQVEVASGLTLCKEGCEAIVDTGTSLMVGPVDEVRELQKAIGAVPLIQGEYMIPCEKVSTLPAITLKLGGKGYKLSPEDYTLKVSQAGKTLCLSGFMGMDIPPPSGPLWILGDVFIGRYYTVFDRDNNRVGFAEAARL
Method: as §1

BACE1 = BACE1 (Homo sapiens, UniProt P56817); assay: FRET-based BACE1 inhibition assay (selectivity counter screen); type: biochemical
Sequence of BACE1 (P56817 46-501): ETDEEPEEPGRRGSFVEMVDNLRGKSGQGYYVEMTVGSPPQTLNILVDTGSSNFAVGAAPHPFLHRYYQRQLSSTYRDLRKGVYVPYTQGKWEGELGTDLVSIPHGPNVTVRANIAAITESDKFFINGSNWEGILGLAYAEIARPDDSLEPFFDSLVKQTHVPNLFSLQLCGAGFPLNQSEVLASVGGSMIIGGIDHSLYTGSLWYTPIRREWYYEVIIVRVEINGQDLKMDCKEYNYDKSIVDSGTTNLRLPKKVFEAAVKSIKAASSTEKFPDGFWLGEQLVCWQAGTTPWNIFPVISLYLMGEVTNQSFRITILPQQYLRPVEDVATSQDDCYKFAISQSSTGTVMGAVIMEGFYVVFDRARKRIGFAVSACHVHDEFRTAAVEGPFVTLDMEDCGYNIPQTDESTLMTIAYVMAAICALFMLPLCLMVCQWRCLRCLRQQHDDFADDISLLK
Method: as §1

[2] = Liver microsomal metabolic stability; type: in vitro ADME, mouse; settings: pooled liver microsomes, pH 7.4, mouse liver microsomes, 5 μM; for microsomal CLint at 1 h, 5 μM: read-out: microsomal stability CL(int)
Method: Microsomal stability assays are performed as described elsewhere.[41] Test compounds and pooled mouse liver microsomes are incubated in potassium phosphate buffer in the presence of the cofactor NADPH at 37 °C. Reaction mixtures (700 μL) contain a final concentration of 5 μM test compound, 0.05% DMSO, 0.5 mg/mL microsomes, and ∼0.7–0.9 mM NADPH in 100 mM potassium phosphate buffer at pH 7.4. Reactions are terminated by the addition of 100 μL of the reaction mixture to 900 μL of acetonitrile after 0, 5, 15, 30, 45, and 60 min of incubation. Samples were centrifuged, and the resultant supernatant was analyzed by ultra-performance liquid chromatography–tandem mass spectrometry (UPLC-MS/MS). The amount of remaining compound is calculated and compared to the initial amount of test compound (zero time point). Verapamil is used as a positive control, and samples prepared without cofactor NADPH are used as a negative control (0 and 60 min). The in vitro metabolic stability parameters (half-life value (t1/2) and intrinsic clearance value (Clint)) are calculated from the slope of the Ln of concentration remaining vs the time curve.

[3] = Plasma protein binding (rapid equilibrium dialysis); type: in vitro ADME; settings: pH 7.4, mouse plasma, 2 h at 37 °C
Method: Plasma protein binding was performed with rapid equilibrium dialysis (RED) device inserts containing a dialysis membrane with a molecular weight cut-off of 8000 Daltons. Inserts were placed in the single-use RED plate without prior preparation.
The test compound at a concentration of 5 μM was added to mouse plasma and dialyzed against phosphate-buffered saline (PBS, pH 7.4) for 2 h at 37 °C. Propranolol hydrochloride was used as a positive control (high PPB), and fluconazole was used as negative control (low PPB). After dialysis, the drug concentration in the buffer and plasma compartments was quantified by liquid chromatography and tandem mass spectrometry (LC-MS/MS) analysis.

[4] = test system: P. falciparum 3D7 parasites; assay: Microscopy of synchronized P. falciparum cultures treated from ring stage (development and egress); type: cell-based; settings: 20 nM
Method: Asexual blood-stage forms of P. falciparum strains 3D7 and Dd2 were maintained at 37 °C in an atmosphere of 1% O2, 5% CO2, and 94% N2 in human RBCs in RPMI 1640 medium containing AlbuMAX II (Thermo Fisher Scientific) and supplemented with 2 mM L-glutamine. The synchronization of parasite cultures was as described previously.[39] Briefly, this involved isolating mature schizont forms by centrifugation over cushions of 70% (v/v) isotonic Percoll (GE Healthcare, Life Sciences) and then allowing the parasites to undergo rupture in the presence of fresh RBCs for 2 h under gentle shaking conditions (100 rpm). Residual schizonts were then removed through a second Percoll separation, followed by treatment with 5% (w/v) sorbitol to finally obtain a highly synchronized preparation of newly invaded ring-stage parasites.
Growth stage progression and parasite morphology were also monitored by microscopic examination at selected time points using Giemsa-stained thin blood films.

[5] = test system: maturation of the PMX substrate SUB1 (p54 to p47); assay: Western blot of SUB1 maturation in treated schizonts; type: cell-based, P. falciparum; settings: 20 nM, 44 h
Method: This phenotype is characteristic of the inhibition of PMX.
(§2) Synchronous parasite cultures were cultured from ring to schizont stage (∼44 h) in the presence of DMSO alone (0.04% v/v; control) or macrocycle compounds (20 nM final concentration). Schizonts were isolated by Percoll enrichment (still in the presence of the test compound), then either immediately frozen or further incubated in the absence of the drug but in the presence of C2 (1 μM) for 1 h at 37°C in the absence of added RBCs or for 3.5 h in the presence of added RBCs. The schizonts without added RBCs were then frozen too, and all schizont samples were then thawed into CHAPS–urea extraction buffer, subjected to sodium dodecyl sulfate-polyacrylamide gel electrophoresis (SDS-PAGE), and analyzed by Western blot, probing with antibodies against SUB1 or RAP1. For schizonts cultured in the presence of added RBCs, ring formation was assessed in two ways: cultures were examined microscopically by Giemsa stain of thin films and were also fixed with glutaraldehyde and processed for quantification of ring formation by flow cytometry as described above.

[6] = test system: maturation of RAP1, substrate of PMIX; assay: Western blot of RAP1 maturation in treated schizonts; type: cell-based, P. falciparum; settings: 20 nM, 44 h
Excerpt: Figure 4 Macrocycle PMX inhibitors have no effect on intraerythrocytic parasite maturation but prevent egress and maturation of SUB1. […] Scale bar, 20 μm. (B) Simplified schematic of proteolytic maturation of the egress effector SUB1. Conversion of the precursor form to p54 is through autocatalytic removal[32] of the prodomain region (PD), whereas conversion of p54 to p47 is mediated by PMX.[15],[16],[33] (C) Left, Western blot analysis of P. falciparum 3D7 schizonts allowed to mature in the presence of the indicated macrocycle compounds (20 nM), showing defective SUB1 maturation in parasites treated with the indicated macrocycle compounds. Right, Western blot of the same extracts probed with a monoclonal antibody (mAb) specific to the rhoptry protein RAP1, which is a substrate for cleavage by the related P. falciparum protease PMIX. The compounds had no discernible effect on the maturation of RAP1. The results shown are typical of 3 independent experiments.
as §2

[7] = test system: SUB1 p54 to p47 conversion (PMX activity); assay: Washout assay, SUB1 maturation by Western blot; type: cell-based, P. falciparum; settings: 20 nM ∼44 h, C2 1 μM for 1 h
Method: (§3) The schizont cultures lacking added RBCs were supplemented with compound C2, which blocks the discharge of exonemes, the parasite secretory organelles in which PMX and SUB1 are stored before egress. The schizonts without added RBCs were sampled for Western blot analysis, while the schizont cultures containing RBCs were examined by microscopy and flow cytometry after a further 4 h in culture to quantify schizont rupture and new ring formation.
as §2

P. falciparum schizonts = assay: Washout assay, schizont rupture and new ring formation; type: cell-based; settings: 20 nM ∼44 h, […] with added RBCs
Method: as §3, §2

[8] = recombinant PMX, read-out: PMX, nM (IC50)

Sequence of recombinant P. falciparum PMX (Q8IAS0 222-573): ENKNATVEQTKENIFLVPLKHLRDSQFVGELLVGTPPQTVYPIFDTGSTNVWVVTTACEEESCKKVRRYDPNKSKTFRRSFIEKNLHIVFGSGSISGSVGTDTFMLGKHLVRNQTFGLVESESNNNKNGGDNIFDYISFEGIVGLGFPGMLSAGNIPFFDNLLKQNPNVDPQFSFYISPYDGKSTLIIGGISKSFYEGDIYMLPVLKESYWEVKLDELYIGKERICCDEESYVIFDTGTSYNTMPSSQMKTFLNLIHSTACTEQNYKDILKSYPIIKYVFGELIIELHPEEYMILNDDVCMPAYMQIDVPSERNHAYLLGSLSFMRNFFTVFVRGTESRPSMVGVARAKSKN

| Compound | IC50 [1, 8] | IC50 (PMIV; read-out: PMIV, nM (IC50)) | IC50 (cathepsin D (CatD)) | IC50 (BACE1) | half-life at 1 h, 5 μM [2] | microsomal CLint at 1 h, 5 μM [2] | fraction unbound at 2 h, 5 µM [3] | intraerythrocytic development of ring-stage parasites to schizont stage ([4]; 44 h) | schizont rupture (egress) and appearance of new rings ([4]; 44 h and extended incubation) | maturation of SUB1 (p54 to p47) [5] | maturation of RAP (PMIX substrate) [6] | SUB1 p54 to p47 conversion after washout [7] | new ring formation after washout (P. falciparum schizonts) | IC50 ([1]; Table 3, read-out: PMX, nM (as listed in Table 3)) | IC50 (PMIV; Table 3, read-out: PMIV, nM (as listed in Table 3)) |
| --- | --- | --- | --- | --- | --- | --- | --- | --- | --- | --- | --- | --- | --- | --- | --- |
| CCCN1CCCCOc2cccc(c2)C[C@@H]([C@H](O)CNC(C)(C)c2cccc(OC)c2)NC(=O)c2cccc(c2)C1=O [7a, (S)-4-((R)-1-Hydroxy-2-((2-(3-methoxyphenyl)propan-2-yl)amino)ethyl)-12-propyl-7-oxa-3,12-diaza-1,6(1,3)-dibenzenacyclotridecaphane-2,13-dione] | 4.1 ± 0.3 nM | 60 ± 3 nM | 270 ± 20 nM | 380 ± 20 nM | 8.67 min | 160 µL/min/mg | 0.029 | Development of ring-stage parasites to the multinucleated schizont stage occurred similarly in all cultures | schizont rupture and appearance of new rings did not occur | clear defect in maturation of the PMX substrate SUB1 | do not affect PMIX activity at these concentrations | efficient conversion of the accumulated SUB1 p54 intermediate to the p47 form | allowed an efficient generation of new rings | – | – |
| CCCN1CCCCc2cccc(c2)C[C@@H]([C@H](O)CNC(C)(C)c2cccc(OC)c2)NC(=O)c2cccc(c2)C1=O [7j, (S)-4-((R)-1-Hydroxy-2-((2-(3-methoxyphenyl)propan-2-yl)amino)ethyl)-11-propyl-3,11-diaza-1,6(1,3)-dibenzenacyclododecaphane-2,12-dione] | 3.8 ± 0.69 nM | 74 ± 4 nM | 1370 ± 70 nM | 3020 ± 150 nM | 14.4 min | 96.4 µL/min/mg | 0.0067 | – | – | clear defect in maturation of the PMX substrate SUB1 | do not affect PMIX activity at these concentrations | efficient conversion of the accumulated SUB1 p54 intermediate to the p47 form | allowed an efficient generation of new rings | 3.8 ± 0.69 nM | 74 ± 4 nM |
